This is an account of results in patent publication US20230331694A1, “FAP-ACTIVATED COMPOUNDS FOR TREATMENT OF CANCER” (The Johns Hopkins University, priority 2020, published 2023).

pIC50: −log10 of the molar value.

Data set [1] relates to mammalian cells such as mCRPCs, TAMs, MSCs, and CAFs. As to conditions: all cells, including mammalian cells; read-out: LC50 (the source's name); cited from earlier work.
In data set [2] the test system is panel of benign and malignant cells. As to the kind of experiment: MTT assay, potency of niclosamide against a panel of cells. It counts as cell-based. As to conditions: all cells tested (FIG. 3A). From the text: FIGS. 3A-3D show characterization data for a compound disclosed herein (Compound 1).
On the technique in general: Tetrazolium assays rely on reduction of a dye to a coloured formazan, in cell work by metabolically active cells.

For data set [3] the following is noted: in vivo, 40 mg/kg.
Protocol: (§2) Column: Luna 2.5u C18, 100 mm ×2.5 mm (Phenomenex 00D-4446-B0). Mobile phase: A = 0.5% acetonitrile/H2O/0.1% formic acid; B= 95% acetonitrile/H2O/0.1% formic acid; Flow = 150 µL/min.
Data set [4] deals with T1, FAP (Homo sapiens, UniProt Q12884).
T1 sequence (Q12884 1-760): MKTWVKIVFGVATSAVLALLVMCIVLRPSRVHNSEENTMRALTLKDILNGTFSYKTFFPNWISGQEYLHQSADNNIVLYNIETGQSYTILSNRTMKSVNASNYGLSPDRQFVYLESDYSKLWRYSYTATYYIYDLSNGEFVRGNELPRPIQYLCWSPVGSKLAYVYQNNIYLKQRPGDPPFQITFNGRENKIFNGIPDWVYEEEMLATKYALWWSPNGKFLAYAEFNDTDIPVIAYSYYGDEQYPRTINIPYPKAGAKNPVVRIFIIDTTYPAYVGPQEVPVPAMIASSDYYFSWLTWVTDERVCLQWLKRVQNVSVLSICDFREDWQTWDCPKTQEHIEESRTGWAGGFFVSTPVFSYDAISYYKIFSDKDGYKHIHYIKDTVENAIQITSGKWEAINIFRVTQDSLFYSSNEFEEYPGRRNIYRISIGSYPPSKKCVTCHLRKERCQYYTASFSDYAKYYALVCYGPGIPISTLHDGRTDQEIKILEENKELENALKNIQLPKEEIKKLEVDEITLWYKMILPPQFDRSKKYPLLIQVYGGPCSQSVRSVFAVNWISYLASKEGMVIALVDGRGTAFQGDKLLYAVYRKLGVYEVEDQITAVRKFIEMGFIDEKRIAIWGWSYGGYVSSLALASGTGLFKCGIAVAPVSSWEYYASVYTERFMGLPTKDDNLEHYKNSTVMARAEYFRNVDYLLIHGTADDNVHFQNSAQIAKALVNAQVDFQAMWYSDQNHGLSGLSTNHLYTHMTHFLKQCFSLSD
The data set is described as follows: FAP-dependent activation of Compound 4 in vitro (HPLC). It counts as biochemical. Also on record: purchased R&D Systems. To be noted: buffer +/- rhFAP (20 nM) overnight (~16 hrs), 37° C., HPLC (FIG. 10). The procedure:
Compound 4 was incubated in buffer +/- rhFAP (20 nM) overnight (~16 hrs), mixing at 37° C. Aliquots taken at indicated time points and the presence of Compound 4 (prodrug) and Tasquinimod (TasQ) were quantified via HPLC.

Data set [5] deals with SkCaP-1 (human PCa xenograft). The data set is described as follows: SkCaP-1 human PCa xenograft in NSG mice. It counts as in vivo. As to conditions: 30 mg/kg i.p. daily vs DMSO control (FIG. 4). The procedure: Intact male NSG mice (3-4 per group) bearing SkCaP-1 (human PCa xenograft) were treated with 30 mg/kg Compound 4 (a tasquinimod compound) i.p. daily, or a control (DMSO).
On the technique in general: In xenograft studies the graft and the host belong to different species.

Data set [6] deals with T1, FAP. As to the kind of experiment: LC-MS assay of FAP-dependent production of niclosamide from prodrug. It counts as biochemical. Also noted: purchased R&D Systems. The procedure:
(§1) In vitro Characterization of Enzymatic Activation Kinetics and FAP-specific Cellular UptakelCytotoxicity: Kinetics of compound activation by FAP is performed as previously described (Aggarwal et al. Biochemistry 47, 1076-1086 (2008); Denmeade et al. Sci TranslMed 4, 140ra186 (2012)). Briefly, increasing concentrations of the test compound (0-10 µM) are incubated with rhFAP, rhDPPIV, or rhPREP [20 nM] (R&D Systems) at 37° C. while shaking. Aliquots are taken to determine concentrations of the test compound and active drug compound at time points ranging from 0-24 hrs using the LCMS method described above in Example 4. Kinetic constants (Km and kcat) are calculated on the basis of the rate of hydrolysis (v) during the linear phase using Michaelis-Menten plots (v vs [S]) with nonlinear regression analysis. Cellular uptake in the presence or absence of rhFAP is determined in cell lysates using the same methodology. Cytotoxicity is determined via MTT in the presence or absence of rhFAP and/or a FAP-specific inhibitor (Jansen et al. J Med Chem 57, 3053-3074 (2014).

The test system of a further data set is LNCaP cells. The data set is described as follows: Seahorse XF Cell Mito Stress Test. It counts as cell-based. The method, then:
A mitochondrial stress test assay was performed using the Agilent Seahorse XF Cell Mito Stress Test Kit (catalog no. 103015-100), a widely-used assay for assessing mitochondrial function. Compound 1 or niclosamide (1 µM) was incubated overnight at 37° C. shaking, with or without FAP (20 nM) in Seahorse Media. This mixture was added to LNCaP cells (60 k cells) the next day, immediately prior to starting the assay (0.5 µM final concentration).

The next data set concerns the target T2, DPPIV (Homo sapiens, UniProt P27487).
T2 construct: purchased R&D Systems
As to the kind of experiment: LC-MS assay of niclosamide production from prodrug with DPPIV. It counts as biochemical. As to conditions: 24 hrs. The method, then: as §1

The target of data set [7] is T1, FAP. As to the kind of experiment: Kinetics of FAP-dependent activation in vitro +/- BSA (HPLC). It counts as biochemical. The procedure: Compound 1 was incubated in Buffer (50 mM Tris-HCl, pH 7.4; 150 mM NaCI) +/-0.4% BSA in glass vials, mixing at 37° C. Aliquots were taken at indicated time points and the presence of Compound 1 (prodrug) and Niclosamide (active compound) were quantified via HPLC.

The next data set concerns CWR22-H tumors. As to the kind of experiment: Castration-resistant CWR22-H tumors in castrated male NSG mice. It counts as in vivo. The method, then: Castrated male NSG mice were inoculated with castration-resistant CWR22-H tumors in 50% Matrigel. When tumors reached ~0.2 cc, treatment with Compound 1 (40 mg/kg) via intraperitoneal (I.P.) injection was initiated. Tumor volumes and body weights were monitored 2x/wk. […] Treatment was well-tolerated as documented by weight loss of <20%.

Data set [8] is described as follows: Pharmacokinetics: plasma, liver, kidney, smooth muscle levels after Compound 1 dosing.
Protocol: as §2
The subject of the next data set is Myc-CaP-CR tumors. The data set is described as follows: Abiraterone-resistant CRPC tumor model (Myc-CaP-CR) in vivo. The procedure:
Animals were treated with either abiraterone at 10 mg/kg by daily oral gavage alone or together with Compound 1 at 50 mg/kg IV on d0 and d4. Toxicity was monitored by measuring body weight and body score (i.e., appearance, lethargy, etc.).

The target in the next data set is T3, PREP (Homo sapiens, UniProt P48147).
T3 construct: purchased R&D Systems
T3 sequence (P48147 1-710): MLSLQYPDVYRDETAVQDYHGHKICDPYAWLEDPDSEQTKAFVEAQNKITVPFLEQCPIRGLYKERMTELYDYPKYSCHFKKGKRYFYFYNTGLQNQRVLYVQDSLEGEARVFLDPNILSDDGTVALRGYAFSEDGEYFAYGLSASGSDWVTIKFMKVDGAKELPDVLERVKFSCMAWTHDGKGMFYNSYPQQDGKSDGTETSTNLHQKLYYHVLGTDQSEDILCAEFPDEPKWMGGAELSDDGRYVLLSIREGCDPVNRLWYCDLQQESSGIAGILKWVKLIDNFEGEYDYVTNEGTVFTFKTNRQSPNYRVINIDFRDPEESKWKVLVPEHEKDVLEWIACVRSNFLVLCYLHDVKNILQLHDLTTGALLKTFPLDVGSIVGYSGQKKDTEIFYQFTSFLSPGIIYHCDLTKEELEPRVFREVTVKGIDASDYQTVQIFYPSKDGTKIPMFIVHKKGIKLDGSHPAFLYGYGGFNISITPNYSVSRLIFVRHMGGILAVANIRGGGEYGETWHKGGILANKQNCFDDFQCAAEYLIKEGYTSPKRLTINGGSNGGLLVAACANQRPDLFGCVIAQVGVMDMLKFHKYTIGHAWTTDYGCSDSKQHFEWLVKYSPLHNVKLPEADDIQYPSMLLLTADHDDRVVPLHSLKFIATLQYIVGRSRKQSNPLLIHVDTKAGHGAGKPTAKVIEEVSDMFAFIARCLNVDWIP
As to the kind of experiment: LC-MS assay of niclosamide production from prodrug with PREP. It counts as biochemical. To be noted: 24 hrs. The procedure:
as §1

T2 sequence (P27487 whole entry): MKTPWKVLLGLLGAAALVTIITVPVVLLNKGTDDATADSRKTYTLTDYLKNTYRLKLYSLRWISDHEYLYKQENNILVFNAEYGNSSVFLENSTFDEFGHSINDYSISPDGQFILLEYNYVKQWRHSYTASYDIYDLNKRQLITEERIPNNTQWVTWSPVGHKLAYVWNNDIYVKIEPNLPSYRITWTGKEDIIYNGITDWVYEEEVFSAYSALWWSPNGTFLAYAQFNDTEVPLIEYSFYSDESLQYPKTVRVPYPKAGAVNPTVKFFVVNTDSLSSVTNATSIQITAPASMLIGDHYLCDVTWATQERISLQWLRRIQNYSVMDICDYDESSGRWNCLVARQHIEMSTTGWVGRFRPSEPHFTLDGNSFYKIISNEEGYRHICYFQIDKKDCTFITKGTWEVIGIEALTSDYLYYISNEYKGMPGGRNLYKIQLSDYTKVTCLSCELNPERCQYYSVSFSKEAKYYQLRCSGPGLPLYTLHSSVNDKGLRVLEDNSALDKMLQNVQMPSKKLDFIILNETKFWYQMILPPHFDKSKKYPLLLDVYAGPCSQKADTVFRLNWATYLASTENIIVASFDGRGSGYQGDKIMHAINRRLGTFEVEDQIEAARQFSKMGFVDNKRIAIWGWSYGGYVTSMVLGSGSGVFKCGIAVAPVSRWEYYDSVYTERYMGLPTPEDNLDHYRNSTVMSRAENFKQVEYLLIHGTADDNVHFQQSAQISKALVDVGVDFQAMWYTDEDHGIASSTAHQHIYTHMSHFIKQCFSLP

In general, pIC50 refers to the negative decadic logarithm of the IC50, by convention in mol/L. Consider `O=C(Nc1ccc([N+](=O)[O-])cc1Cl)c1cc(Cl)ccc1O` [Niclosamide, niclosamide], for which the CC50 in data set [1] was below 1000 nM. In addition, in data set [2], the pIC50 was above 6.30. For the same molecule, in data set [3], the “niclosamide in liver as % of Compound 1 concentrations” value is 25-50%, the “niclosamide in plasma as % of Compound 1 dose” value is on record as below 10%, the “niclosamide in smooth muscle as % based on liver concentrations” value was below 1% and the “niclosamide in smooth muscle as % of administered dose based on plasma concentrations” value is 5-10%. For the same molecule, in data set [3], the “niclosamide level in plasma” value is below 1 µM and the “niclosamide level in smooth muscle” value is recorded as below 1 µM.
For the molecule `COc1cccc2c1c(OCc1ccc(NC(=O)C3CC(F)(F)CN3C(=O)CNC(=O)c3ccnc4ccccc34)cc1)c(C(=O)N(C)c1ccc(C(F)(F)F)cc1)c(=O)n2C` (stereo not drawn) [Compound 4], the “FAP-dependent activation to tasquinimod” value at FAP [4] was “confirm FAP-dependent activation”. Further, in data set [5], the “tumor growth (tumor volume)” value is listed as “decreases tumor growth compared to the control”.
For orientation: Kp means the ratio of the level in a tissue or fluid to that in plasma or blood. The bioavailability is the share of a dose that reaches the circulation, judged against a reference dose that is usually intravenous. Read a low bioavailability as little systemic uptake. The term half-life denotes how long it takes for the measured level to halve. A lower half-life goes with rapid decline. A word on the Cmax: it is the highest concentration seen after dosing. As for `O=C(Nc1ccc([N+](=O)[O-])cc1Cl)c1cc(Cl)ccc1OCc1ccc(NC(=O)C2CC(F)(F)CN2C(=O)CNC(=O)c2ccnc3ccccc23)cc1` (stereo not drawn) [Compound 1], the “production of active niclosamide” value on FAP [6] (absence of enzyme, 24 hrs) was “no production observed”; on DPPIV, “no production observed”; at PREP, “no production observed”. Also, on FAP [6] (with FAP, over 24 hrs (FIG. 3B)), the “increase in active niclosamide” value is reported as ~ 20 fold. In addition, the “baseline ECAR” value in the data set with LNCaP cells (activated by FAP) was “already at maximum”. In the data set on LNCaP cells (activated by FAP (20 nM) overnight, 0.5 µM final (FIG. 6)), the “oxygen consumption rate (OCR), mitochondrial uncoupling” value is “uncouples mitochondria”. Also, the “extracellular acidification rate (ECAR) on oligomycin addition” value with LNCaP cells (activated by FAP (FIG. 7)) is recorded as “does not change with the addition of oligomycin”. For the same molecule, the non-mitochondrial respiration entry with LNCaP cells (activated by FAP, after rotenone and antimycin A) was “no change in non-mitochondrial respiration”. In addition, the “effect of BSA on production of the active compound” value on FAP [7] (0.4% BSA) is “BSA inhibits production of the active compound”. The “prodrug and active compound over time” value at FAP [7] (buffer pH 7.4, 37° C., HPLC (FIG. 5)) is “time-dependent increase in the active compound and concomitant decrease in the prodrug over time”. Besides, in the data set with CWR22-H tumors (40 mg/kg daily IP), the weight loss is listed as below 20%. For the same molecule, in the data set on CWR22-H tumors (40 mg/kg daily IP (FIG. 8)), the “anti-tumor activity (tumor volume)” value was “Anti-tumor activity was observed”. Moreover, the “plasma level as % of the IV dose” value in [8] (40 mg/kg IP) is ~ 50%. Moreover, the “kidney level as % of the IV dose” value in data set [8] (40 mg/kg IP, at ~4 hrs) is ~ 30%. Besides, the “liver level as % of the IV dose” value in data set [8] (40 mg/kg IP, at ~4 hrs) is recorded as ~ 50%. In addition, the “converted to niclosamide (kidney)” value in [8] (Compound 1 administered IV or IP) is given as below 10%. Further, the “stability of the prodrug as a systemic therapy” value in data set [8] (in vivo, from tissue niclosamide levels) is “good stability”. The concentration at 1 hr is around 50 µM in data set [8] (kidney, intravenous, 40 mg/kg); around 1 µM in data set [8] (kidney, oral, 40 mg/kg); around 100 µM in data set [8] (liver, intravenous, 40 mg/kg); around 10 µM in data set [8] (liver, oral, 40 mg/kg). Moreover, the Kp at 1 hr in [8] (liver, intravenous, 40 mg/kg) lay in the range of 10 to 15. The bioavailability in data set [8] (liver, po, 40 mg/kg) was around 10%; in [8] (plasma, po, 40 mg/kg) it was 5 to 10%. Moreover, in data set [8] (plasma, intravenous, 40 mg/kg), the half-life fell in the range of 3 to 4 h. Besides, the Cmax in data set [8] (plasma, iv, 40 mg/kg) is around 7 µM; in [8] (plasma, po, 40 mg/kg), around 0.4 µM. The “toxicity (body weight and body score)” value with Myc-CaP-CR tumors (Compound 1 50 mg/kg IV d0 and d4 together with abiraterone 10 mg/kg (FIG. 3D)) is “no evidence of toxicity”. For the same molecule, the anti-tumor efficacy result in the data set on Myc-CaP-CR tumors (Compound 1 50 mg/kg IV d0 and d4 together with abiraterone 10 mg/kg daily oral gavage (FIG. 3C)) is reported as “significant anti-tumor efficacy”.
